In paper PMC6476926, “Dichloro-Phenyl-Benzotriazoles: A New Selective Class of Human Respiratory Syncytial Virus Entry Inhibitors” (Frontiers in Chemistry, 2019):
“Also recorded” adds a separate entry of the source.

Key:
[1] = test system: RSV; experiment: microbe, parasite or virus in culture; assay type: cell-based, Human Respiratory Syncytial Virus (RSV) strain A2; conditions: human respiratory syncytial virus, Vero 76, read-out: EC50 RSV
[2] = test system: HIV-1IIIB; experiment: microbe, parasite or virus in culture; assay type: cell-based, Human Immunodeficiency Virus type-1 (HIV-1); conditions: Human immunodeficiency virus 1, MT4, read-out: EC50 HIV-1IIIB
[3] = test system: BVDV; experiment: microbe, parasite or virus in culture; assay type: cell-based; conditions: Bovine viral diarrhea virus isolates and strains, MDBK, read-out: EC50 BVDV
[4] = test system: YFV; experiment: microbe, parasite or virus in culture; assay type: cell-based; conditions: Yellow fever virus, BHK, read-out: EC50 YFV
[5] = test system: Reo-1; experiment: microbe, parasite or virus in culture; assay type: cell-based, Reovirus type-1 (Reo-1); conditions: Reovirus sp., BHK, read-out: EC50 Reo-1
[6] = test system: CV-B5; experiment: microbe, parasite or virus in culture; assay type: cell-based, Human Enterovirus B [coxsackie type B5 (CV-B5)]; conditions: Enterovirus B, CVB5, Vero 76, read-out: EC50 CV-B5
[7] = test system: Sb-1, VSV, VV, HSV-1; experiment: organism not typed; assay type: cell-based; conditions: Vero 76, read-out: EC50 Sb-1, VSV, VV, HSV-1
[8] = test system: RSV virions; experiment: Virucidal activity assay; assay type: cell-based, Human Respiratory Syncytial Virus (RSV); conditions: 20 μM, 4°C or 37°C, 1 h
Protocol: The mixture without test sample was used as the control. At the end of incubation period, samples were serially diluted in media and titers were determined on Vero-76 cells at high dilutions, at which the compound was not active. Virus titers were determined by plaque assay in Vero-76 cells.

[9] = test system: RSV; experiment: Cell pretreatment assay; assay type: cell-based, Human Respiratory Syncytial Virus (RSV); conditions: Vero-76 pretreated with 20 μM, 2 h at 4°C; titer 3 days post infection
Protocol: After removal of the compound and two gentle washes, cells were infected with RSV. After virus adsorption to cells, the inoculum was removed and the cells were then overlaid with medium, incubated for 3 days at 37°C, and then virus titers were determined by plaque assay.

[10] = test system: RSV; experiment: Time of addition assay; assay type: cell-based, Human Respiratory Syncytial Virus (RSV); conditions: 20 μM
Protocol: After each incubation period, the monolayers were washed two times with maintenance medium and incubated with fresh medium until 10 h post-infection. Then, after 36 h the development of cytopathic effect (CPE) was evaluated microscopically and each sample was collected, centrifuged and frozen at −80°C. The viral titer was determined by plaque assay (or ELISA).

[11] = test system: RSV A2; experiment: Immunofluorescence attachment assay; assay type: cell-based, Human Respiratory Syncytial Virus (RSV); conditions: 4°C, Vero-76; 20 μM 10d, 6 μg/mL dextran sulfate, 5 μM 6-azauridine
Protocol: Compounds' inhibitory effects on virus-cell binding event was measured by immunofluorescence performed according to the method described previously with some modifications (Maric et al., [2011]). […] After this incubation period, the monolayers were washed three times in cold PBS in order to remove unbound viral particles and then were fixed in paraformaldehyde 4%. The presence of bound virus was detected by indirect immunofluorescence. […] Abcam, Cambridge, United Kingdom). Cells were then washed three times in PBS-Tween-100 and incubated with a 1:500 dilution of an Alexa Fluor 488-labeled anti-mouse secondary antibody (Molecular Probes, Eugene, Oreg.). After a series of washes in PBS-Tween-100, cells were mounted with Vectashield (Vector Laboratories, Burlingame, CA) containing 4′,6-diamidino-2-phenylindole (DAPI) and images of each well were captured with the ZOE Fluorescent Cell Imager (Biorad).

[12] = test system: RSV strain B1 cp-52; experiment: microbe, parasite or virus in culture; assay type: cell-based; conditions: human respiratory syncytial virus, Vero 76, read-out: 50% inhibitory concentration RSV cp-52
[13] = Cytotoxicity in continuous cell lines (summary statement); assay type: cell-based; conditions: continuous cell lines from different organs and species (Table 1, Table S2); read-out: CC50 in most continuous cell lines
Protocol: Exponentially growing MT-4 cells were seeded at an initial density of 4x10^5 cells/mL in 96-well plates containing RPMI-1640 medium, supplemented with 10% fetal bovine serum (FBS), 100 units/mL penicillin G and 100 μg/mL streptomycin. MDBK, Hep-2 and BHK cells were seeded at an initial density of 6 × 10^5, 5 × 10^5, and 1 × 10^6 cells/mL, respectively, in 96-well plates containing Minimum Essential Medium with Earle's salts (MEM-E), L-glutamine, 1 mM sodium pyruvate and 25 mg/L kanamycin, supplemented with 10% horse serum (MDBK) or 10% fetal bovine serum (FBS) (BHK; Hep-2). Vero-76 cells were seeded at an initial density of 5 × 10^5 cells/mL in 96-well plates containing in Dulbecco's Modified Eagle Medium (D-MEM) with L-glutamine and 25 mg/L kanamycin, supplemented with 10% FBS. Cell cultures were then incubated at 37°C in a humidified, 5% CO2 atmosphere, in the absence or presence of serial dilutions of test compounds. The test medium used for cytotoxic and antiviral assay contained 1% of the appropriate serum. Cell viability was determined after 72, 96, or 120 h at 37°C by the MTT method for MT-4, MDBK, Hep-2, BHK and Vero-76 cells (Budge et al., [2004]).

[14] = in vitro; conditions: cattle (Bos taurus)
[15] = test system: RSV A2; experiment: Syncytium reduction assay; conditions: Vero-76, added 8 h p.i. at 50, 10, 2 μM, assessed 72 h p.i.
[16] = Cytotoxicity, MTT method, BHK cells; conditions: Syrian hamster (Mesocricetus auratus)
[17] = Cytotoxicity, MTT method, MT-4 cells; conditions: human
[18] = Cytotoxicity, MTT method, Vero-76 cells; conditions: African green monkey (Cercopithecus aethiops)
[19] = test system: RSV; experiment: Antigen reduction assay (ELISA) in RSV-infected Vero-76 cells
[20] = test system: RSV F-protein; conditions: read-out: experimental IC50; ref Battles et al., [2016]; cited from earlier work
[21] = in vitro; conditions: African green monkey (Cercopithecus aethiops)

Q: Which EC50 [1] does the source give for O=C(Nc1ccc(-n2nc3cc(Cl)c(Cl)cc3n2)cc1)NC1CCCCC1 [10d, 1-[4-(5,6-dichloro-2H-benzo[d][1,2,3]triazol-2-yl)phenyl]-3-cyclohexylurea] here?
A: Its EC50 is 2 µM.

Q: What about the EC50 [2] of the same molecule?
A: Its EC50 is over 100 µM.

Q: And the EC50 [3]?
A: Its EC50 is over 100 µM.

Q: What about the EC50 [4] of the same molecule?
A: Its EC50 is over 71 µM.

Q: What about the EC50 [5] of the same molecule?
A: The EC50 was over 71 µM.

Q: And the EC50 [6]?
A: The EC50 was over 90 µM.

Q: What about the EC50 [7] of the same molecule?
A: The EC50 was over 90 µM.

Q: What about the virucidal effect [8] of the same molecule?
A: The virucidal effect was “negligible”.

Q: What about the “inhibition of RSV infection after cell pretreatment” value [9] of the same molecule?
A: Its value is “failed to inhibit RSV infection; also recorded: failed to prevent viral infection”.

Q: What about the “inhibition of RSV, addition at later times” value ([10]; m.o.i. 1, 4–10 h after infection) of the same molecule?
A: Its value is “failed to exhibit significant antiviral activity”.

Q: What about the “inhibition of RSV, addition in early phases” value ([10]; m.o.i. 1, during the 2 h of infection (t = 0) and immediately after) of the same molecule?
A: Its value is “most efficient inhibition was observed in early phases of infection”.

Q: What about the “inhibition of viral attachment” value [11] of the same molecule?
A: The value was “does not inhibit viral attachment; also recorded: not able to block viral binding to cells”.

Q: And the IC50 [12]?
A: The IC50 was 7 ± 1 µM.

Q: And the CC50 [13]?
A: Its CC50 is under 70 µM.

Q: And the melting point?
A: Its melting point is over 300 °C.

Q: What about the CC50 [14] of the same molecule?
A: Its CC50 is over 100 µM.

Q: And the syncytium formation [15]?
A: Its syncytium formation is “the number and the size of syncytia decreased in a dose-dependent manner; also recorded: both size and number of syncytia did not increase; also recorded: effective in reducing both syncytia area and number at a concentration of 50 μM; also recorded: dose-dependent reduction of syncytia area and number”.

Q: And the CC50 [16]?
A: The CC50 was 71 µM.

Q: And the CC50 [17]?
A: The CC50 was over 100 µM.

Q: What about the CC50 at 5 days [18] of the same molecule?
A: Its CC50 at 5 days is 90 µM.

Q: And the “reduction of viral antigen” value ([19]; ELISA, at 20 μM)?
A: The value was 80%.

Q: And the EC50 ([19]; human respiratory syncytial virus, Vero 76, read-out: EC50 viral antigen reduction)?
A: The EC50 was 5 µM.

Q: With Cc1ccc(CCCO)c(NCc2ccc3nc(NCCCN4CCOCC4)n(Cc4nc(C)ccc4O)c3c2)c1 [TMC353121] as the molecule, how does the IC50 [20] read?
A: Its IC50 is 0.0087 µM.

Q: Which results are given for NC(=O)c1ncn([C@@H]2O[C@H](CO)[C@@H](O)[C@H]2O)n1 [ribavirin, reference compound]?
A: EC50 [1]: 7 µM; CC50 at 5 days [21]: > 100 µM
